Literature values in US20240032540A1, “MICROPARTICLE COMPOSITIONS COMPRISING FUNGICIDES” (BASF CORPORATION, priority 2020, published 2024).

Question: Which solubility in water does the source give for O=C(NCCc1ncc(C(F)(F)F)cc1Cl)c1ccccc1C(F)(F)F [Fluopyram, N-{2-[3-chloro-5-(trifluoromethyl)-2-pyridyl]ethyl}-a,a,a-trifluoro-o-toluamide] here?
Answer: only sparingly soluble in water
